{"source": "patent US20040019018A1", "about": "“Rigid pyrrolidone modulators of pkc” (priority 2003, published 2004)", "key": {"PC12 cells": {"system": "PC12 cells", "conditions": "cited from earlier work"}, "sAPP": {"system": "sAPP", "conditions": "cited from earlier work"}, "113pS K+ channels": {"system": "113pS K+ channels", "conditions": "cited from earlier work"}, "[1]": {"system": "LNCaP prostate cancer cells", "test": "Induction of apoptosis in LNCaP prostate cancer cells (DAPI staining)", "type": "cell-based", "description": "The capacity of inducing apoptosis by compound (1) was evaluated in a model of LNCaP prostate cancer cells. It is well established that in this model phorbol esters (e.g., PMA) activate PKC to induce apoptosis (reference 13). LNCaP cells were treated with compound (1) for 1 h, and apoptosis was assessed 24 h later.\nControl cells or cells infected for 14 h with adenoviruses for LacZ, PKCα, or PKCδ (multiplicity of infection=10 pfu/cell) were treated with different concentrations of compound (1) or PMA for 1 h. Cells were collected 24 h later and stained with DAPI. The incidence of apoptosis in each preparation was analyzed by counting 500 cells and determining the percentage of apoptotic cells. Results are the mean±standard error of three independent experiments.\nIt is well established that PKCα and PKCδ are the isozymes that mediate phorbol ester-induced apoptosis in LNCaP cells (references 13c-e). A model that has been used to assess isozyme-specificity is the overexpression of specific PKCs by an adenoviral system. Infection of LNCaP cells with adenoviruses for PKCs leads to a high expression of the corresponding PKC isozyme, as determined by Western-blot analysis, kinase activity, or [^3H]PDBu binding (reference 13e)."}}, "data": [{"smiles": "CCCCCCCCC#Cc1ccc2c(c1)C[C@@H](CO)NC(=O)[C@H](C(C)C)N2C", "note": "[BL, (2S, 5S)-8-(1-decynyl)benzolactam]", "values": [{"measurement": "sAPP secretion", "setting": "PC12 cells", "value": "~3", "unit": "fold"}, {"measurement": "sAPP secretion in control fibroblasts", "setting": "sAPP; control fibroblasts, 10 μM BL", "value": "significant increases of sAPP secretion"}, {"measurement": "sAPP secretion over basal levels", "setting": "sAPP; fibroblasts", "value": "enhance sAPP secretion over basal levels"}, {"measurement": "responsiveness of AD fibroblast cell lines to the TEA challenge", "setting": "113pS K+ channels", "value": "restored the responsiveness"}]}, {"smiles": "CCCCCCCCCCCCCC(=O)O[C@@H]1[C@@H](C)[C@@]2(O)[C@@H](C=C(CO)C[C@]3(O)C(=O)C(C)=C[C@@H]23)[C@@H]2C(C)(C)[C@]12OC(C)=O", "note": "[PMA, reference compound]", "values": [{"measurement": "apoptotic effect with control adenovirus", "setting": "[1]; LNCaP cells infected with LacZ adenovirus", "value": "did not affect the apoptotic effect"}, {"measurement": "apoptotic response with overexpression of PKC isozymes", "setting": "[1]; LNCaP cells infected with adenoviruses for PKCα or PKCδ", "value": "marked potentation"}]}, {"smiles": "CN[C@@H]1C[C@H]2O[C@@](C)([C@@H]1OC)n1c3ccccc3c3c4c(c5c6ccccc6n2c5c31)C(=O)NC4", "note": "[Staurosporine]", "values": [{"measurement": "effect on BL-induced sAPP secretion", "setting": "sAPP; control and AD fibroblasts", "value": "eliminated the effects of BL"}]}]}
